Test results from patent US12410153B2, “Compounds, compositions and methods” (Avalo Therapeutics, Inc., priority 2014, dated 2025).

Key:
[1] = system: systemic blood pressure and heart rate; experiment: Blood pressure profile in chronically instrumented (telemetered) rats; assay type: in vivo, rat; settings: for DAP change / PP change / SAP change / Activity change / HR change / MAP change: 1 hour post dose, vehicle subtracted, mean ± SEM; for Activity change / HR change / MAP change: listed as crystalline Form II of Compound (I)
Procedure: A single oral gavage dose was administered (volume: 5 mL/kg). […] Following the completion of the Latin square, two additional dose concentrations were evaluated (0.6 and 10 mg/kg, n=3 per group).
All IV doses were administered in manually restrained rats via tail vena-puncture. It should be noted that vehicle controls were also administered.
A 24-hour recording was performed prior to dosing (vehicle alone) and after each oral dose.

[2] = Single-dose pharmacokinetics in rats (oral and IV); assay type: in vivo; settings: male, Sprague-Dawley, rat, plasma
Procedure: (§1) Male Sprague-Dawley rats (N=8; N=4 oral and N=4 intravenous [IV]) weighing approximately 250-280 g and male rhesus monkeys (N=4, crossover) weighing 6.0-8.8 kg were used for the PK studies. In rats, the IV dose of crystalline Form II of Compound (I) at 2 mg/kg (0.4 mL/kg) was administered as a bolus and the oral dose was administered by gavage at 15 mg/kg (5 mL/kg). In monkeys, the IV dose of Form II at 2 mg/kg (0.1 mL/kg) was administered as a slow bolus and the oral dose was administered via nasogastric tube at 15 mg/kg (5 mL/kg). Blood samples were serially collected pre-dose, and at 0.083 (IV only), 0.25, 0.50, 1, 2, 4, 6, 8, 10, 24, 48, 72, and 96 h post-dose. The concentrations of Form II in rat and monkey plasma were determined by LC/MS/MS analysis in the positive ion mode using a heated nebulizer interface. The lower limit of quantitation was 2.5 ng/mL (approximately 0.00697 μM).

dogs [3] = experiment: Cardiovascular safety in anesthetized dogs, continuous IV infusion 90 min; assay type: in vivo, dog; settings: escalating IV infusion rates
Procedure: (§2) The potential effects of Form II of Compound (I) on the functions of the nervous system, cardiovascular system, and respiratory system were evaluated in a battery of safety pharmacology studies that included an in vitro human ether-a-go-go-related gene (hERG) assay and in vivo studies in rats, dogs, and monkeys. CNS effects were tested in rats at single doses at 15, 75, and 225 mg/kg.
(§3) Effects of Form II on the cardiovascular system were tested in several studies. Potential QTc effects were tested in vitro and in vivo.
(§4) Hemodynamic effects were tested in dogs and monkeys. […] However, Form II did produce dose-independent increases in systolic (12-15 mm Hg), diastolic (7-10 mm Hg), and mean arterial pressures (9-12 mm Hg) in conscious, chair-restrained monkeys given single oral doses at 15, 75, or 150 mg/kg and monitored for 6 h post-dose.

[4] = as above; assay type: in vivo, dog; settings: dog, plasma, escalating IV infusion rates, read-out: plasma concentration at the end of infusion
Procedure: as §2, §3, §4

[5] = Polymorph stability (slurry and heating, XRPD); assay type: physicochemical; settings: between room temperature and 121° C.
Procedure: Crystalline Form II of Compound (I) was characterized using X-ray powder diffraction (XRPD) (FIG. 1A). The XRPD pattern corresponds to an anhydrous form denoted as Form II, which is highly crystalline. In addition to Form II, Compound (I) can exist as another anhydrous polymorph, denoted as Form I. The XRPD patterns of these phases are shown in FIG. 1B. A slurry experiment was performed at room temperature by adding approximately equal proportions of the two anhydrous phases to methyl-tert-butyl ether.

dogs [6] = experiment: Respiratory effects in anesthetized dogs, 5-min IV infusion; assay type: in vivo, dog; settings: 3 mg/kg, monitored 60 min
Procedure: (§5) Respiratory effects were investigated in rats and dogs. […] Mean Form II plasma concentration was approximately 30 μM (10600 ng/mL) at the end of infusion and approximately 4 μM (1250 ng/mL) at 60 min post-infusion.

[7] = as above; assay type: in vivo, dog; settings: dog, plasma, 3 mg/kg
Procedure: as §5

rats = experiment: Respiratory effects in male rats, single oral doses; assay type: in vivo, rat
Procedure: as §5

[8] = Single-dose pharmacokinetics in monkeys (oral and IV); assay type: in vivo; settings: male, rhesus monkey, plasma
Procedure: as §1

[9] = 1 mg/kg PO in β1 AR blocked animals (atenolol 1 mg/kg), 1 hour post dosing
[10] = IV 2 mg/kg, mean (S.D.), read-out: CLp
[11] = IV 2 mg/kg, mean (S.D.), read-out: Vdss
[12] = rhesus, PO 15 mg/kg, mean (S.D.)

Work on Cc1ccc(COC(=O)N2CC[C@H](CNc3ncccn3)[C@H](F)C2)cc1 [Form II, 4-methylbenzyl (3S, 4R)-3-fluoro-4-[(pyrimidin-2-ylamino)methyl] piperidine-1-carboxylate] yielded a DAP change ([1]; 0.3 mg/kg PO) of 4.1 ± 0.9 mmHg, a PP change ([1]; 0.3 mg/kg PO) of 0.1 ± 1.0 mmHg and an SAP change ([1]; 0.3 mg/kg PO) of 4.3 ± 1.2 mmHg. The Activity change ([1]; 0.3 mg/kg PO) was 0.012±0.025 arbitrary unit, the HR change ([1]; 0.3 mg/kg PO) was 15±10 bpm and the MAP change ([1]; 0.3 mg/kg PO) was 4.2±0.9 mmHg. The DAP change ([1]; 0.6 mg/kg PO) was 7.8 ± 1.1 mmHg, the PP change ([1]; 0.6 mg/kg PO) was −1.5 ± 1.4 mmHg and the SAP change ([1]; 0.6 mg/kg PO) was 6.3 ± 1.6 mmHg. For the same compound, the Activity change ([1]; 0.6 mg/kg PO) was 0.003±0.033 arbitrary unit, the HR change ([1]; 0.6 mg/kg PO) was 10±15 bpm and the MAP change ([1]; 0.6 mg/kg PO) was 6.8±1.2 mmHg. The “MAP increase with dosing” value ([1]; 1 mg/kg PO in the setting of α1 AR blockade (prazosin 200 μg/kg)) was 11.3±2.0 mmHg, the “HR change vs pre-blockade baseline” value ([1]; 1 mg/kg PO in the setting of α1 AR blockade (prazosin 200 μg/kg), 1 hour post dosing) was 118±20 bpm and the HR increase post-dosing ([1]; 1 mg/kg PO in β1 AR blocked animals (atenolol 1 mg/kg)) was 53±17 bpm. For the same compound, the “HR change vs pre-blockade baseline” value [1, 9] was −7±17 bpm, the “MAP change vs pre-blockade baseline” value [1, 9] was 5.8±4.8 mmHg and the DAP change ([1]; 1.0 mg/kg PO) was 15.2 ± 3.0 mmHg. It also gave a PP change ([1]; 1.0 mg/kg PO) of 1.4 ± 1.1 mmHg, an SAP change ([1]; 1.0 mg/kg PO) of 16.8 ± 3.7 mmHg and an Activity change ([1]; 1.0 mg/kg PO) of 0.049±0.037 arbitrary unit. It also gave an HR change ([1]; 1.0 mg/kg PO) of 34±13 bpm, an MAP change ([1]; 1.0 mg/kg PO) of 15.7±3.2 mmHg and a DAP change ([1]; 3.0 mg/kg PO) of 15.0 ± 2.0 mmHg. For the same compound, the PP change ([1]; 3.0 mg/kg PO) was 4.0 ± 0.9 mmHg, the SAP change ([1]; 3.0 mg/kg PO) was 19.2 ± 2.4 mmHg and the Activity change ([1]; 3.0 mg/kg PO) was 0.174±0.048 arbitrary unit. It also gave an HR change ([1]; 3.0 mg/kg PO) of 66±9 bpm, an MAP change ([1]; 3.0 mg/kg PO) of 17.1±2.3 mmHg and a DAP change ([1]; 10 mg/kg PO) of 17.3 ± 1.9 mmHg. The PP change ([1]; 10 mg/kg PO) was 3.1 ± 1.3 mmHg, the SAP change ([1]; 10 mg/kg PO) was 20.7 ± 2.4 mmHg and the Activity change ([1]; 10 mg/kg PO) was 0.232±0.057 arbitrary unit. It also gave an HR change ([1]; 10 mg/kg PO) of 71±25 bpm, an MAP change ([1]; 10 mg/kg PO) of 19.1±2.4 mmHg and a bioavailability ([2]; 15 mg/kg, dose-normalized AUC0-∞ after IV and PO, non-crossover) of 60%. It also gave an AUC(0-inf) ([2]; IV 2 mg/kg, mean (S.D.)) of 3.31 µM·h, a half-life ([2]; IV 2 mg/kg, mean (S.D.)) of 1.7 h and a clearance [2, 10] of 28.4 mL/min/kg. For the same compound, the Vd [2, 11] was 3.1 L/kg, the AUC(0-inf) ([2]; PO 15 mg/kg, mean (S.D.)) was 14.9 µM·h and the Cmax ([2]; PO 15 mg/kg, mean (S.D.)) was 5.9 µM. For the same compound, the “heart rate, arterial blood pressure, femoral blood flow” value (dogs [3]) was “did not affect”, the “heart rhythm and ECG parameters incl. QTc interval” value (dogs [3]) was “did not affect” and the concentration at 90 min [4] was about 74 µM. For the same compound, the “thermodynamic stability of polymorph” value [5] was “thermodynamically stable form”, the “respiratory parameters and blood pH, pCO2, pO2” value (dogs [6]) was “did not affect” and the concentration at 60 min ([7]; read-out: mean plasma concentration at 60 min post-infusion) was about 4 µM. For the same compound, the concentration at 5 min ([7]; read-out: mean plasma concentration at the end of infusion) was about 30 µM, the “respiratory function (respiratory rate, tidal volume, minute ventilation, PenH)” value (rats; 15, 75, and 225 mg/kg oral) was “respiratory stimulation” and the “respiratory function at end of 6-h monitoring period” value (rats; ≥75 mg/kg oral) was “remained altered”. The bioavailability ([8]; 15 mg/kg, dose-normalized AUC0-∞ after IV and PO, crossover) was 50%, the Tmax ([8]; po, 15 mg/kg, PO 15 mg/kg, mean (S.D.)) was about 2 h and the half-life ([8]; IV 2 mg/kg, mean (S.D.)) was 4.2 h. It also gave a clearance [8, 10] of 15.1 mL/min/kg, a Vd [8, 11] of 2.9 L/kg and an AUC(0-inf) ([8]; rhesus, IV 2 mg/kg, mean (S.D.)) of 6.67 µM·h. It also gave an AUC(0-inf) [8, 12] of 25.1 µM·h and a Cmax [8, 12] of 3.6 µM.
